Experimental data as given in US20240270703A1, “HERBICIDAL COMPOUNDS” (SYNGENTA CROP PROTECTION AG, priority 2021, published 2024).

How the values were obtained:
Assay type in all cases: in vivo
[1] = system: Amaranthus retroflexus (AMARE); assay: Herbicidal glasshouse test, POST application; conditions: 130 g/ha; evaluated after 14 days; 100=total damage to plant, 0=no damage to plant
[2] = system: Abutilon theophrasti (ABUTH); assay: Herbicidal glasshouse test, POST application; conditions: 130 g/ha; evaluated after 14 days; 100=total damage to plant, 0=no damage to plant
[3] = system: Setaria faberi (SETFA); assay: Herbicidal glasshouse test, POST application; conditions: 130 g/ha; evaluated after 14 days; 100=total damage to plant, 0=no damage to plant
[4] = system: Echinochloa crus-galli (ECHCG); assay: Herbicidal glasshouse test, POST application; conditions: 130 g/ha; evaluated after 14 days; 100=total damage to plant, 0=no damage to plant
[5] = system: Zea mays (ZEAMX); assay: Herbicidal glasshouse test, POST application (crop damage); conditions: 130 g/ha; evaluated after 14 days; 100=total damage to plant, 0=no damage to plant; maize crop
[6] = system: Abutilon theophrasti (ABUTH); assay: Herbicidal glasshouse test, PRE application; conditions: 130 g/ha; evaluated after 14 days; 100=total damage to plant, 0=no damage to plant
Description: (§1) Seeds of a variety of test species are sown in standard soil in pots (Lolium perenne (LOLPE), Amaranthus retroflexus (AMARE), Abutilon theophrasti (ABUTH), Setaria faberi (SETFA), Echinochloa crus-galli (ECHCG), Zea mays (ZEAMX)). After cultivation for one day under controlled conditions in a glasshouse (at 24/16° C., day/night; 14 hours light; 65% humidity), the plants were sprayed with an aqueous spray solution derived from the formulation of the technical active ingredient in 0.6 ml acetone and 45 ml formulation solution containing 10.6% Emulsogen EL (Registry number 61791-12-6), 42.2% N-methyl pyrrolidone, 42.2% dipropylene glycol monomethyl ether (CAS RN 34590-94-8) and 0.2% X-77 (CAS RN 11097-66-8).
(§2) The test plants were then grown in a glasshouse under controlled conditions in a glasshouse (at 24/16° C., day/night; 14 hours light; 65% humidity) and watered twice daily. After 14 days, the test was evaluated (100=total damage to plant; 0=no damage to plant, NC=data not captured). The compounds were applied at 130 g/ha unless otherwise stated.

[7] = system: Amaranthus retroflexus (AMARE); assay: Herbicidal glasshouse test, PRE application; conditions: 130 g/ha; evaluated after 14 days; 100=total damage to plant, 0=no damage to plant
Description: as §1, §2

[8] = system: Echinochloa crus-galli (ECHCG); assay: Herbicidal glasshouse test, PRE application; conditions: 130 g/ha; evaluated after 14 days; 100=total damage to plant, 0=no damage to plant
Description: as §1, §2

[9] = system: Setaria faberi (SETFA); assay: Herbicidal glasshouse test, PRE application; conditions: 130 g/ha; evaluated after 14 days; 100=total damage to plant, 0=no damage to plant
Description: as §1, §2

[10] = system: Zea mays (ZEAMX); assay: Herbicidal glasshouse test, PRE application (crop damage); conditions: 130 g/ha; evaluated after 14 days; 100=total damage to plant, 0=no damage to plant; maize crop
Description: as §1, §2

Structure (SMILES)	damage to plant, AMARE, POST Application [1]	damage to plant, ABUTH, POST Application [2]	damage to plant, SETFA, POST Application [3]	damage to plant, ECHCG, POST Application [4]	damage to plant, ZEAMX, POST Application [5]	damage to plant, ABUTH, PRE Application [6]	damage to plant, AMARE, PRE Application [7]	damage to plant, ECHCG, PRE Application [8]	damage to plant, SETFA, PRE Application [9]	damage to plant, ZEAMX, PRE Application [10]
CN(C)S(=O)(=O)c1c(OC(F)(F)F)ccc(C(=O)Nc2nnnn2C)c1Cl [Compound 1.003]	100	100	100	100	0	90	90	70	0	0
CCNS(=O)(=O)c1c(OC(F)(F)F)ccc(C(=O)Nc2nnnn2C)c1Cl [Compound 1.002, 2-chloro-3-(ethylsulfamoyl)-N-(1-methyltetrazol-5-yl)-4-(trifluoromethoxy)benzamide]	100	90	70	90	0	80	100	10	0	0
CN(C)S(=O)(=O)c1c(OC(F)F)ccc(C(=O)Nc2nnnn2C)c1Cl [Compound 1.009]	100	–	90	90	10	–	100	100	100	10
CCN(C)S(=O)(=O)c1c(OC(F)F)ccc(C(=O)Nc2nnnn2C)c1Cl [Compound 1.010]	100	–	90	100	10	–	100	100	100	10
CNS(=O)(=O)c1c(OC(F)(F)F)ccc(C(=O)Nc2nnnn2C)c1Cl [Compound 1.004]	80	80	80	80	10	100	100	90	90	0
Cn1nnnc1NC(=O)c1ccc(OC(F)(F)F)c(S(=O)(=O)NCC2CC2)c1Cl [Compound 1.001]	100	80	20	60	0	100	100	20	0	0
